Literature values in patent US12533310B2, “Fragrance or flavor composition” (Takasago International Corporation, priority 2019, dated 2026).

Columns and labels:
[1] = background art, Patent Literature 4; cited from earlier work
olfactory receptor OR2W1 = biological target: T1, olfactory receptor OR2W1 (Homo sapiens, UniProt Q9Y3N9); settings: background art, Patent Literature 4; cited from earlier work
T1 sequence (Q9Y3N9 1-320): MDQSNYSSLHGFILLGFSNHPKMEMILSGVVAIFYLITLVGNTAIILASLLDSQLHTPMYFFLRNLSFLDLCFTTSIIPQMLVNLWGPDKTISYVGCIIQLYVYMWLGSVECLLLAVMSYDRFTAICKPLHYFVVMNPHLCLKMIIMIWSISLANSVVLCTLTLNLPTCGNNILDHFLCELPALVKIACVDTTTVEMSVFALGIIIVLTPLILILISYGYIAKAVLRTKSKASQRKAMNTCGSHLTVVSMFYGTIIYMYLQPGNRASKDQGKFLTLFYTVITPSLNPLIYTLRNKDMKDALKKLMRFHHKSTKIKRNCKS

Which results are given for `CC(C)c1cccc(C(C)CC=O)c1` (centres unmarked) [florhydral]?
suppression of offensive odor induced by hexanoic acid in sensory testing [1]: suppress an offensive odor induced by hexanoic acid; inhibition of the activity of OR2W1 (olfactory receptor OR2W1): inhibiting the activity of this OR2W1
